Experimental findings from patent US20230348917A1, “EXPRESSION VECTOR FOR USE IN METHANOTROPH” (priority 2020, published 2023) are described below.

Molecules are shown by their SMILES.

For data set [1], the system named is M. capsulatus Bath. To be noted: pAWP89S-Po-dTomato strain; 100 μM phenol compared with 10 μM phenol. On the procedure: (§1) The transconjugated M. capsulatus Bath and M. trichosporium OB3b were inoculated by 10% in NMS medium containing 25 μg/ml kanamycin and 10 μM CuCl2. For the methanotrophs transconjugated with the pAWP89S-Po-dTomato, 10 μM of phenol was contained in the medium. After sealing, 50% methane gas was substituted in the headspace. The recombinant M. capsulatus Bath was cultured at 37° C. for 24 hours or 44 to 48 hours, and therecombinant M. trichosporium OB3b was cultured at 30° C.

Data set [2] relates to dTomato expression in M. capsulatus Bath. The data set is described as follows: dTomato expression by fluorescence in transconjugated M. capsulatus Bath. The format is cell-based, Methylococcus capsulatus Bath. As to conditions: pAWP89S-Po-dTomato plasmid; 10 μM phenol. On the procedure: as §1
In data set [3] the test system is M. capsulatus Bath. The data set is described as follows: Toxicity test of isoprene and epoxy isoprene (growth assay). To be noted: various concentrations of isoprene, or 1.35 and 13.5 mg/L epoxyisoprene; for growth of the strain expressing sMMO: absence of copper; for growth of the cells expressing pMMO: presence of copper. Type of data set: cell-based, Methylococcus capsulatus Bath. Here is the method:
To analyze the toxicity of isoprene and epoxyisoprene using wild-type strains, 2 mL cultures were transferred to 150 mL serum bottle containing 19 ml NMS medium with or without 10 μM CuCl2. After incubation for 6.5 to 7.5 hours, an appropriate amount of isoprene or epoxy isoprene (2-methyl-2-vinyloxirane) diluted in dodecane was added. The bottle was sealed, 50% of the headspace was replaced with methane, and the bottle was further incubated. Sampling of 1 mL cultures for cell density measurement was performed at appropriate time intervals using a disposable syringe without reopening the bottle.
To examine the potential toxicity of isoprene produced in M. capsulatus Bath, growth assays were performed in the presence of various concentrations of isoprene while regulating the expression of sMMO and pMMO enzymes by controlling the addition of copper.
In addition, in order to examine whether the growth inhibition of the strain was due to the oxidation of isoprene by sMMO, the strain growth was analyzed in the presence of 1.35 and 13.5 mg/L of epoxyisoprene, an oxidation product of isoprene. As a result, it was confirmed that the growth of both the sMMO-expressing strain and the pMMO-expressing strain were reduced depending on the concentration of the epoxy isoprene treated above ((d) and (e) in FIG. 17).

Data set [4] has as its system dTomato expression in M. trichosporium OB3b. The data set is described as follows: dTomato expression by fluorescence (microplate reader, FACS) in transconjugated M. trichosporium OB3b. The format is cell-based, Methylosinus trichosporium OB3b. As to conditions: pAWP89S-Ptet-dTomato plasmid; aTc induction. Here is the method:
For analysis of the expression level by fluorescence, 200 μl was sampled in a 96-well plate and a Tecan microplate reader (excitation: 535 nm, emission: 590 nm) was used. FACS analysis was performed using BD Biosciences FACSCalibur equipment (excitation: 488 nm, emission: 585 nm).
M. trichosporium OB3b transconjugated with the pAWP89S-Ptet-dTomato plasmid was treated with anhydrotetracycline (aTc) at 0 μM, 0.5 μM, 1 μM, or 2 μM, respectively, to induce expression, and the expression of the fluorescent protein dTomato was examined for 8 days. The experiment was performed by the method of Experimental Example 3 above.

Data set [5] deals with M. capsulatus Bath with the pAWP89S-Po-dTomato plasmid. To be noted: 0.5 mM benzene, 24 hours. On the procedure:
It was confirmed whether dTomato could be induced with benzene under sMMO expression conditions (copper-deficient medium).
The M. capsulatus Bath with the pAWP89S-Po-dTomato plasmid were cultured under sMMO expression condition (copper-deficient medium) and pMMO expression condition (copper-containing medium) while supplying 0.5 mM benzene for 24 hours. A strain supplied with 10 μM of phenol was used as a control group.

Turning to `Oc1ccccc1` [phenol], the strain growth entry in data set [1] is “inhibited”. Further, the “time after phenol supply at which fluorescence due to dTomato expression was observed” value in data set [2] was 5 h.

Regarding `C=CC(=C)C` [isoprene], in data set [3], the “growth of the strain expressing sMMO” value is on record as “reduced” and the “growth of the cells expressing pMMO” value was “unaffected”.

Consider `Cc1c2c(c(O)c3c(O)cccc13)C(=O)[C@]1(O)C(=O)C(C(N)=O)=C(O)[C@@H](N(C)C)[C@@H]1C2` [aTc, anhydrotetracycline], for which, in data set [4], the “FACS distribution of dTomato fluorescence of individual cells” value is “two peaks were formed” and the “time required for expression to be most active” value is “about 8 days”.

As to `C=CC1(C)CO1` (stereo not shown) [epoxyisoprene, 2-methyl-2-vinyloxirane], in data set [3], the “growth of the strain expressing sMMO” value is given as “reduced” and the “growth of the cells expressing pMMO” value is listed as “reduced”.

`c1ccccc1` [benzene]: the “dTomato expression (fluorescence value)” value in data set [5] (pMMO expression condition (copper-containing medium)) was “relatively small fluorescence value”. For the same compound, the dTomato expression result in data set [5] (sMMO expression condition (copper-deficient medium)) was “highly induced”.
